In patent publication EP4722207A1, “OXOISOINDOLINYL-SUBSTITUTED TETRAHYDROPYRIMIDINEDIONE DERIVATIVE AND USE THEREOF” (Gluetacs Therapeutics (Shanghai) Co., Ltd., priority 2023, dated 2024):

What was measured:
Assay type in all cases: cell-based
IKZF2 = molecular target: T1, IKZF2 (Homo sapiens, UniProt Q96SW2+Q9UKS7); experiment: Western-blot assay, substrate protein degradation in hPBMCs: IKZF2; conditions: for IKZF2 substrate protein remaining %: compounds at 50 nM and 500 nM, 24 hours; for substrate protein remaining % IKZF2: 24 hours of compound treatment, 50 nM and 500 nM
T1 construct: effects of the compounds of the present disclosure on the expression of target proteins in cells; endogenous in cells; host or cells: human PBMCs (hPBMCs)

IKZF3 = molecular target: T2, IKZF3 (Homo sapiens, UniProt Q96SW2+Q9UKT9); experiment: Western-blot assay, substrate protein degradation in hPBMCs: IKZF3; conditions: for IKZF3 substrate protein remaining %: compounds at 50 nM and 500 nM, 24 hours; for substrate protein remaining % IKZF3: 24 hours of compound treatment, 50 nM and 500 nM
T2 construct: effects of the compounds of the present disclosure on the expression of target proteins in cells; endogenous in cells; host or cells: human PBMCs (hPBMCs)
T2 sequence (Q9UKT9 whole entry): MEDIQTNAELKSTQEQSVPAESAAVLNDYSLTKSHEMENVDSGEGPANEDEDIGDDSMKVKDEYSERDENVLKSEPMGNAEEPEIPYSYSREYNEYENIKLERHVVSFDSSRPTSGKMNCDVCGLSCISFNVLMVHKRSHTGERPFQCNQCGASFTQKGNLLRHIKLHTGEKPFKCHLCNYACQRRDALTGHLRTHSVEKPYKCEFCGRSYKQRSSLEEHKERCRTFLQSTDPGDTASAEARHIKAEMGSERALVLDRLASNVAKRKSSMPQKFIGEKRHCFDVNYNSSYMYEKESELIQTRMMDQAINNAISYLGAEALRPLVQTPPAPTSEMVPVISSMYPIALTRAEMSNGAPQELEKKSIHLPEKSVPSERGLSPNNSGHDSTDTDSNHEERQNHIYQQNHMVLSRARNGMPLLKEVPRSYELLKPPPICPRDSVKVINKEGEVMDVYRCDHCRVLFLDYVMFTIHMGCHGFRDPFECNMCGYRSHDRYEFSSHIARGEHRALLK
T2 sequence (Q96SW2 whole entry): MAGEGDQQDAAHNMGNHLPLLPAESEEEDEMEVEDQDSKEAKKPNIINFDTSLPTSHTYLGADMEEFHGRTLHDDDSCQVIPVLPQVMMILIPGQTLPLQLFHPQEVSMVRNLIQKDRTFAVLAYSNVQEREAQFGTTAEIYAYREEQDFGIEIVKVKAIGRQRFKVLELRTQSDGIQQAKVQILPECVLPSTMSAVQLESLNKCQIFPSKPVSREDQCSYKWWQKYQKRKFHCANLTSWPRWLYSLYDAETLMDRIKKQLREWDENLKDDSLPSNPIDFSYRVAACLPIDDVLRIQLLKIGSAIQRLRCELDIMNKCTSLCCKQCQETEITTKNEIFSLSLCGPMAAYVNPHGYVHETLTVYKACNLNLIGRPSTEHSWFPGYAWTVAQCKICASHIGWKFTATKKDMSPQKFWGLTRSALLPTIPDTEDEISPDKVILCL
T2 sequence (Q16531 whole entry partner): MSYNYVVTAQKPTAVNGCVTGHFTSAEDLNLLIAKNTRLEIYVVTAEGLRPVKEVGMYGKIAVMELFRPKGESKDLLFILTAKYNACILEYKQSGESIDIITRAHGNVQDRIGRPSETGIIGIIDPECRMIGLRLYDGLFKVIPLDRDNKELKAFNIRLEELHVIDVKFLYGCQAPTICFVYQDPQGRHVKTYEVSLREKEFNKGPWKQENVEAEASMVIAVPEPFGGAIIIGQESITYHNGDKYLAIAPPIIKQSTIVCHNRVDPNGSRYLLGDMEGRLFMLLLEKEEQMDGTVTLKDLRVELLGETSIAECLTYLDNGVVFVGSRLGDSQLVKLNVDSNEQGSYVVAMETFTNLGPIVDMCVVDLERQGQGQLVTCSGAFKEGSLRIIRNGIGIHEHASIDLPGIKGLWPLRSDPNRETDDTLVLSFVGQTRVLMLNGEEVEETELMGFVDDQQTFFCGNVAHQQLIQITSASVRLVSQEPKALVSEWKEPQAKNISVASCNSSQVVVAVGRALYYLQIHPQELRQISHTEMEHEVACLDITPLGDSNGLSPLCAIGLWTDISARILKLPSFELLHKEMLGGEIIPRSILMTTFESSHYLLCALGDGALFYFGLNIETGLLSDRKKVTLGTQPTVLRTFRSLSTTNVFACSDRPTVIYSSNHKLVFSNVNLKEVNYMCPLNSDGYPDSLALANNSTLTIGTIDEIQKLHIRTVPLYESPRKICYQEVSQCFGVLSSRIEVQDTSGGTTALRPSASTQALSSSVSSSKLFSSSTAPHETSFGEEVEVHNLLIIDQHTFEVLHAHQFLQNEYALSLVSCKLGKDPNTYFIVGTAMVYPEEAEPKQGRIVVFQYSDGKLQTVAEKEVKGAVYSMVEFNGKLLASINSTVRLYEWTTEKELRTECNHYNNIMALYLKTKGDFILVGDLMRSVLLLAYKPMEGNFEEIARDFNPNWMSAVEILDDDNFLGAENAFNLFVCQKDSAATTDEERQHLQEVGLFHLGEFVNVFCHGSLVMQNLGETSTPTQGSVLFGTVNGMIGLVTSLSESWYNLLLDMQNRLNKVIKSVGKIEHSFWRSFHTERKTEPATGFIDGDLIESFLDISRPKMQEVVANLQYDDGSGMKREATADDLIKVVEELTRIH

CK1α = molecular target: T3, CK1α (Homo sapiens, UniProt P48729+Q96SW2); experiment: Western-blot assay, substrate protein degradation in hPBMCs: CK1α; conditions: for CK1α substrate protein remaining %: compounds at 50 nM and 500 nM, 24 hours; for substrate protein remaining % CK1α: 24 hours of compound treatment, 50 nM and 500 nM
T3 construct: effects of the compounds of the present disclosure on the expression of target proteins in cells; endogenous in cells; host or cells: human PBMCs (hPBMCs)
T3 sequence (P48729 whole entry): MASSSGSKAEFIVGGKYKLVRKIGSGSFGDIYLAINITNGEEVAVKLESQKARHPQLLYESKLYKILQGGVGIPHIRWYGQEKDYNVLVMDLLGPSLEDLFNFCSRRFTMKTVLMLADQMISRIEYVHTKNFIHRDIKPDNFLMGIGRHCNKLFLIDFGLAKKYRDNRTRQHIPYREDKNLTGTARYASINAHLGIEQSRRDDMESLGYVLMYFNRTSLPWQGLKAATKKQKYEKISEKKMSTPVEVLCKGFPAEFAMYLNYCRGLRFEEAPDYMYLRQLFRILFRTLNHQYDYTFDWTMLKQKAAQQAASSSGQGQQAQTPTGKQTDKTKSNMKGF
T3 sequence (Q96SW2 whole entry): as the sequence (Q96SW2 whole entry) above
T3 sequence (Q16531 whole entry partner): as the sequence (Q16531 whole entry partner) above

WEE1 = molecular target: T4, WEE1 (Homo sapiens, UniProt P30291+Q96SW2); experiment: Western-blot assay, substrate protein degradation in hPBMCs: WEE1; conditions: for WEE1 substrate protein remaining %: compounds at 50 nM and 500 nM, 24 hours; for substrate protein remaining % WEE1: 24 hours of compound treatment, 50 nM and 500 nM
T4 construct: effects of the compounds of the present disclosure on the expression of target proteins in cells; endogenous in cells; host or cells: human PBMCs (hPBMCs)
T4 sequence (P30291 whole entry): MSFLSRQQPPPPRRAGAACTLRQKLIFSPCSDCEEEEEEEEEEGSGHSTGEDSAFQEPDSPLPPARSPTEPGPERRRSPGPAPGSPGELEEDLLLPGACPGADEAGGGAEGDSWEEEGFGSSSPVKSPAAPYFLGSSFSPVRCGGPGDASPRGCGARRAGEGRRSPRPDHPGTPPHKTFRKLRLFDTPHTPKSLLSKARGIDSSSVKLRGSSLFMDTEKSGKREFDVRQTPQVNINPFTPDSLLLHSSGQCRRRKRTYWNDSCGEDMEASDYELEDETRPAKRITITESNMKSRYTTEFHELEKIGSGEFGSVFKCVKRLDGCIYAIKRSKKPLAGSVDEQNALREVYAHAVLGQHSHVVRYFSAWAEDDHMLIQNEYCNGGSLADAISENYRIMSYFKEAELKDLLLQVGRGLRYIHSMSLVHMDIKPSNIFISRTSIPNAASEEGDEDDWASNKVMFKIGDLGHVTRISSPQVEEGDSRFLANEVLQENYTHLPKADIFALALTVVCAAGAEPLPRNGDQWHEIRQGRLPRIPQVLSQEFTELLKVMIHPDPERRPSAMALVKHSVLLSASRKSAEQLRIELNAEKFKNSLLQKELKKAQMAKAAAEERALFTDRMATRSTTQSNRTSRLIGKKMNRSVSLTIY
T4 sequence (Q96SW2 whole entry): as the sequence (Q96SW2 whole entry) above
T4 sequence (Q16531 whole entry partner): as the sequence (Q16531 whole entry partner) above

GSPT1 = molecular target: T5, GSPT1 (Homo sapiens, UniProt P15170+Q96SW2); experiment: Western-blot assay, substrate protein degradation in hPBMCs: GSPT1; conditions: for GSPT1 substrate protein remaining %: compounds at 50 nM and 500 nM, 24 hours; for substrate protein remaining % GSPT1: 24 hours of compound treatment, 50 nM and 500 nM
T5 construct: effects of the compounds of the present disclosure on the expression of target proteins in cells; endogenous in cells; host or cells: human PBMCs (hPBMCs)
T5 sequence (P15170 whole entry): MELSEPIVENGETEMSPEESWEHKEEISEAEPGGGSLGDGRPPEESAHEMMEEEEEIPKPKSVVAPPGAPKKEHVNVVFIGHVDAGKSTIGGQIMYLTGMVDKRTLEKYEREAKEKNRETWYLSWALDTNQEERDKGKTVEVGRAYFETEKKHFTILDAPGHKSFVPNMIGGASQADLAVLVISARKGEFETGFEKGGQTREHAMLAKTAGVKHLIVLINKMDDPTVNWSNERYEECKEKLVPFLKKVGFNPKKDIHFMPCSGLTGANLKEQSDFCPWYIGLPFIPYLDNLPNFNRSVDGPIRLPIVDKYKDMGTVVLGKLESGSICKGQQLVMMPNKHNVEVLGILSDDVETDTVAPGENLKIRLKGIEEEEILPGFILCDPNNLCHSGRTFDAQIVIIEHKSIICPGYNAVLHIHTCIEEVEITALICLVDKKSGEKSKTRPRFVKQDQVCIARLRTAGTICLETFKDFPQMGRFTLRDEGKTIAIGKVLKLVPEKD
T5 sequence (Q96SW2 whole entry): as the sequence (Q96SW2 whole entry) above
T5 sequence (Q16531 whole entry partner): as the sequence (Q16531 whole entry partner) above

IKZF1 = molecular target: T6, IKZF1 (Homo sapiens, UniProt Q13422+Q96SW2); experiment: Western-blot assay, substrate protein degradation in hPBMCs: IKZF1; conditions: for IKZF1 substrate protein remaining %: compounds at 50 nM and 500 nM, 24 hours; for substrate protein remaining % IKZF1: 24 hours of compound treatment, 50 nM and 500 nM
T6 construct: effects of the compounds of the present disclosure on the expression of target proteins in cells; endogenous in cells; host or cells: human PBMCs (hPBMCs)
T6 sequence (Q13422 whole entry): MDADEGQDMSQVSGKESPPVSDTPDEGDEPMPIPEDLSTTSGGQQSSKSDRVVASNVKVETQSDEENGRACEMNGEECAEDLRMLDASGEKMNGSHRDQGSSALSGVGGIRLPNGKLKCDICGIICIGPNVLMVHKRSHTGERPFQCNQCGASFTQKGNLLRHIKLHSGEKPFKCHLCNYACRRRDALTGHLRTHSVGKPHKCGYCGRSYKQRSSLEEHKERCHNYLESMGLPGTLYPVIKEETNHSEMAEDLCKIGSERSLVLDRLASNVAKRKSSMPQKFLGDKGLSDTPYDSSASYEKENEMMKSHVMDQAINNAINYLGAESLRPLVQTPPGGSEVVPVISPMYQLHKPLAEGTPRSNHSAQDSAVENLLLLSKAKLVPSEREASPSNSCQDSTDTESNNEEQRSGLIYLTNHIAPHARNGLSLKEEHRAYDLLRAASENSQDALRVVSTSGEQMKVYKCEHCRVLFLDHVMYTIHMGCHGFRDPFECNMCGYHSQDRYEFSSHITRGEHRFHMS
T6 sequence (Q96SW2 whole entry): as the sequence (Q96SW2 whole entry) above
T6 sequence (Q16531 whole entry partner): as the sequence (Q16531 whole entry partner) above

| SMILES | IKZF2 substrate protein remaining % (IKZF2) | IKZF3 substrate protein remaining % (IKZF3) | CK1α substrate protein remaining % (CK1α) | WEE1 substrate protein remaining % (WEE1) | GSPT1 substrate protein remaining % (GSPT1) | IKZF1 substrate protein remaining % (IKZF1) | substrate protein remaining % IKZF2 (IKZF2) | substrate protein remaining % IKZF3 (IKZF3) | substrate protein remaining % CK1α (CK1α) | substrate protein remaining % WEE1 (WEE1) | substrate protein remaining % GSPT1 (GSPT1) | substrate protein remaining % IKZF1 (IKZF1) |
| --- | --- | --- | --- | --- | --- | --- | --- | --- | --- | --- | --- | --- |
| O=C1CCN(N2C(=O)c3ccc(CN4CCN(c5ccncc5Cl)CC4)cc3C2=O)C(=O)N1 [GT-07165, 5-((4-(3-chloropyridin-4-yl)piperazin-1-yl)methyl)-2-(2,4-dioxotetrahydropyrimidin-1(2H)-yl)isoindoline-1,3-dione] | A ("A" is defined as 0% ≤ substrate protein remaining % ≤ 80%) | B ("B" is defined as 80%< substrate protein remaining %≤ 100%) | B ("B" is defined as 80%< substrate protein remaining %≤ 100%) | B ("B" is defined as 80%< substrate protein remaining %≤ 100%) | A ("A" is defined as 0% ≤ substrate protein remaining % ≤ 80%) | B ("B" is defined as 80%< substrate protein remaining %≤ 100%) |  |  |  |  |  |  |
| Cc1cc(C2CCN(Cc3ccc4c(c3)C(=O)N(N3CCC(=O)NC3=O)C4=O)CC2)cs1 [GT-07421, 2-(2,4-dioxotetrahydropyrimidin-1(2H)-yl)-5-((4-(5-methylthiophen-3-yl)piperidin-1-yl)methyl)isoindoline-1,3-dione] |  |  |  |  |  |  | B (80%< substrate protein remaining %≤ 100%) | B (80%< substrate protein remaining %≤ 100%) | A (0% ≤ substrate protein remaining % ≤ 80%) | B (80%< substrate protein remaining %≤ 100%) | A (0% ≤ substrate protein remaining % ≤ 80%) | B (80%< substrate protein remaining %≤ 100%) |
| O=C1CCN(N2C(=O)c3ccc(CN4CCN(c5ccc(C(F)(F)F)cn5)CC4)cc3C2=O)C(=O)N1 [GT-06968, 2-(2,4-dioxotetrahydropyrimidin-1(2H)-yl)-5-((4-(5-(trifluoromethyl)pyridin-2-yl)piperazin-1-yl)methyl)isoindoline-1,3-dione] | A ("A" is defined as 0% ≤ substrate protein remaining % ≤ 80%) | B ("B" is defined as 80%< substrate protein remaining %≤ 100%) | B ("B" is defined as 80%< substrate protein remaining %≤ 100%) | A ("A" is defined as 0% ≤ substrate protein remaining % ≤ 80%) | B ("B" is defined as 80%< substrate protein remaining %≤ 100%) | B ("B" is defined as 80%< substrate protein remaining %≤ 100%) |  |  |  |  |  |  |
| O=C1CCN(N2C(=O)c3ccc(CN4CCN(Cc5ccc(C67CC8CC(CC(C8)C6)C7)cc5)CC4)cc3C2=O)C(=O)N1 [GT-07722, 5-((4-(4-((3r,5r,7r)-adamantan-1-yl)benzyl)piperazin-1-yl)methyl)-2-(2,4-dioxotetrahydropyrimidin-1(2H)-yl)isoindoline-1,3-dione] |  |  |  |  |  |  | A (0% ≤ substrate protein remaining % ≤ 80%) | A (0% ≤ substrate protein remaining % ≤ 80%) | A (0% ≤ substrate protein remaining % ≤ 80%) | A (0% ≤ substrate protein remaining % ≤ 80%) | A (0% ≤ substrate protein remaining % ≤ 80%) | B (80%< substrate protein remaining %≤ 100%) |
| O=C1CCN(N2Cc3cc(CN4CCN(c5ccc(F)cn5)CC4)ccc3C2=O)C(=O)N1 [GT-05131, 1-(5-((4-(5-fluoropyridin-2-yl)piperazin-1-yl)methyl)-1-oxoisoindolin-2-yl)dihydropyrimidine-2,4(1H,3H)-dione] | A ("A" is defined as 0% ≤ substrate protein remaining % ≤ 80%) | A ("A" is defined as 0% ≤ substrate protein remaining % ≤ 80%) | A ("A" is defined as 0% ≤ substrate protein remaining % ≤ 80%) | A ("A" is defined as 0% ≤ substrate protein remaining % ≤ 80%) | A ("A" is defined as 0% ≤ substrate protein remaining % ≤ 80%) | A ("A" is defined as 0% ≤ substrate protein remaining % ≤ 80%) |  |  |  |  |  |  |
